Test results: patent US20130274338A1, “PHARMACEUTICAL COMPOSITIONS COMPRISING DGLA, 15-OHEPA, AND/OR 15-HETRE AND METHODS OF REDUCING SEBUM PRODUCTION USING SAME” (priority 2012, published 2013)

Tested on: P. acnes
Assay: Agar dilution method, growth of P. acnes and MIC, combinations with a fatty acid spike
Assay type: cell-based, Propionibacterium acnes
Design: key to Growth Index Plate 1 / Growth Index Plate 2 / Growth Index Plate 3 / Growth Index Avg: +++: confluent growth (comparable to control); ++: less confluent growth; +: marked reduction in growth to multiple tiny, single colonies; −: no growth present
[1] = compound at 1 mg/mL + 0.01 mg/mL 15-HETrE
[2] = compound at 1 mg/mL + 0.05 mg/mL 15-HETrE
[3] = compound at 1 mg/mL + 0.05 mg/mL 15-OHEPA
[4] = compound at 1 mg/mL + 0.1 mg/mL 15-OHEPA
[5] = compound at 1 mg/mL + 0.4 mg/mL dGLA
[6] = compound at 1 mg/mL + 1.0 mg/mL dGLA
[7] = compound at 5 mg/mL + 0.01 mg/mL 15-HETrE
[8] = compound at 5 mg/mL + 0.05 mg/mL 15-HETrE
[9] = compound at 5 mg/mL + 0.05 mg/mL 15-OHEPA
[10] = compound at 5 mg/mL + 0.1 mg/mL 15-OHEPA
[11] = compound at 5 mg/mL + 0.4 mg/mL dGLA
[12] = compound at 5 mg/mL + 1.0 mg/mL dGLA
[13] = compound at 10 mg/mL + 0.01 mg/mL 15-HETrE
[14] = compound at 10 mg/mL + 0.05 mg/mL 15-HETrE
[15] = compound at 10 mg/mL + 0.05 mg/mL 15-OHEPA
[16] = compound at 10 mg/mL + 0.1 mg/mL 15-OHEPA
[17] = compound at 10 mg/mL + 0.4 mg/mL dGLA
[18] = compound at 10 mg/mL + 1.0 mg/mL dGLA
[19] = compound at 15 mg/mL + 0.01 mg/mL 15-HETrE
[20] = compound at 15 mg/mL + 0.05 mg/mL 15-HETrE
[21] = compound at 15 mg/mL + 0.05 mg/mL 15-OHEPA
[22] = compound at 15 mg/mL + 0.1 mg/mL 15-OHEPA
[23] = compound at 15 mg/mL + 0.4 mg/mL dGLA
[24] = compound at 15 mg/mL + 1.0 mg/mL dGLA
[25] = compound at 25 mg/mL + 0.01 mg/mL 15-HETrE
[26] = compound at 25 mg/mL + 0.05 mg/mL 15-HETrE
[27] = compound at 25 mg/mL + 0.05 mg/mL 15-OHEPA
[28] = compound at 25 mg/mL + 0.1 mg/mL 15-OHEPA
[29] = compound at 25 mg/mL + 0.4 mg/mL dGLA
[30] = compound at 25 mg/mL + 1.0 mg/mL dGLA

Compound: NC(=O)c1cccnc1 [Nicotinamide]
- Growth Index Avg [1]: +++
- Growth Index Plate 1 [1]: +++
- Growth Index Plate 2 [1]: +++
- Growth Index Plate 3 [1]: +++
- Growth Index Avg [2]: −
- Growth Index Plate 1 [2]: −
- Growth Index Plate 2 [2]: −
- Growth Index Plate 3 [2]: −
- Growth Index Avg [3]: +++
- Growth Index Plate 1 [3]: +++
- Growth Index Plate 2 [3]: +++
- Growth Index Plate 3 [3]: +++
- Growth Index Avg [4]: −
- Growth Index Plate 1 [4]: −
- Growth Index Plate 2 [4]: −
- Growth Index Plate 3 [4]: −
- Growth Index Avg [5]: +++
- Growth Index Plate 1 [5]: +++
- Growth Index Plate 2 [5]: +++
- Growth Index Plate 3 [5]: +++
- Growth Index Avg [6]: +++
- Growth Index Plate 1 [6]: +++
- Growth Index Plate 2 [6]: +++
- Growth Index Plate 3 [6]: +++
- Growth Index Avg [7]: +++
- Growth Index Plate 1 [7]: +++
- Growth Index Plate 2 [7]: +++
- Growth Index Plate 3 [7]: +++
- Growth Index Avg [8]: −
- Growth Index Plate 1 [8]: −
- Growth Index Plate 2 [8]: −
- Growth Index Plate 3 [8]: −
- Growth Index Avg [9]: +++
- Growth Index Plate 1 [9]: +++
- Growth Index Plate 2 [9]: +++
- Growth Index Plate 3 [9]: +++
- Growth Index Avg [10]: −
- Growth Index Plate 1 [10]: −
- Growth Index Plate 2 [10]: −
- Growth Index Plate 3 [10]: −
- Growth Index Avg [11]: +++
- Growth Index Plate 1 [11]: +++
- Growth Index Plate 2 [11]: +++
- Growth Index Plate 3 [11]: +++
- Growth Index Avg [12]: +++
- Growth Index Plate 1 [12]: +++
- Growth Index Plate 2 [12]: +++
- Growth Index Plate 3 [12]: +++
- Growth Index Avg [13]: ++
- Growth Index Plate 1 [13]: ++
- Growth Index Plate 2 [13]: ++
- Growth Index Plate 3 [13]: ++
- Growth Index Avg [14]: −
- Growth Index Plate 1 [14]: −
- Growth Index Plate 2 [14]: −
- Growth Index Plate 3 [14]: −
- Growth Index Avg [15]: +++
- Growth Index Plate 1 [15]: +++
- Growth Index Plate 2 [15]: +++
- Growth Index Plate 3 [15]: +++
- Growth Index Avg [16]: −
- Growth Index Plate 1 [16]: −
- Growth Index Plate 2 [16]: −
- Growth Index Plate 3 [16]: −
- Growth Index Avg [17]: +++
- Growth Index Plate 1 [17]: +++
- Growth Index Plate 2 [17]: +++
- Growth Index Plate 3 [17]: +++
- Growth Index Avg [18]: ++
- Growth Index Plate 1 [18]: +
- Growth Index Plate 2 [18]: ++
- Growth Index Plate 3 [18]: ++
- Growth Index Avg [19]: −
- Growth Index Plate 1 [19]: −
- Growth Index Plate 2 [19]: −
- Growth Index Plate 3 [19]: −
- Growth Index Avg [20]: −
- Growth Index Plate 1 [20]: −
- Growth Index Plate 2 [20]: −
- Growth Index Plate 3 [20]: −
- Growth Index Avg [21]: −
- Growth Index Plate 1 [21]: −
- Growth Index Plate 2 [21]: −
- Growth Index Plate 3 [21]: −
- Growth Index Avg [22]: −
- Growth Index Plate 1 [22]: −
- Growth Index Plate 2 [22]: −
- Growth Index Plate 3 [22]: −
- Growth Index Avg [23]: +
- Growth Index Plate 1 [23]: +
- Growth Index Plate 2 [23]: +
- Growth Index Plate 3 [23]: +
- Growth Index Avg [24]: −
- Growth Index Plate 1 [24]: −
- Growth Index Plate 2 [24]: −
- Growth Index Plate 3 [24]: −
- Growth Index Avg [25]: −
- Growth Index Plate 1 [25]: −
- Growth Index Plate 2 [25]: −
- Growth Index Plate 3 [25]: −
- Growth Index Avg [26]: −
- Growth Index Plate 1 [26]: −
- Growth Index Plate 2 [26]: −
- Growth Index Plate 3 [26]: −
- Growth Index Avg [27]: −
- Growth Index Plate 1 [27]: −
- Growth Index Plate 2 [27]: −
- Growth Index Plate 3 [27]: −
- Growth Index Avg [28]: −
- Growth Index Plate 1 [28]: −
- Growth Index Plate 2 [28]: −
- Growth Index Plate 3 [28]: −
- Growth Index Avg [29]: −
- Growth Index Plate 1 [29]: −
- Growth Index Plate 2 [29]: −
- Growth Index Plate 3 [29]: −
- Growth Index Avg [30]: −
- Growth Index Plate 1 [30]: −
- Growth Index Plate 2 [30]: −
- Growth Index Plate 3 [30]: −
- growth of P. Acnes in combination with 15-HETrE, compared with 15-HETrE used alone (in combination with 15-HETrE): did not reduce the growth
- growth of P. Acnes in combination with 15-OHEPA, compared with 15 OHEPA used alone (in combination with 15-OHEPA): did not reduce the growth
- growth of P. Acnes in combination with DGLA, compared with DGLA used alone (in combination with DGLA): did not reduce the growth
